Source: patent US9090568B2, “Quinazolinediones and their use” (IMPACT Therapeutics, Inc., priority 2011, dated 2015)
Like-named read-outs stand apart in the source and are kept apart here.

What was measured:
PARP-1 = molecular target: T1, PARP-1 (Homo sapiens, UniProt P09874); assay: PARP-1 activity assay (HT Universal chemiluminescent PARP Assay Kit); assay type: biochemical; settings: 0.5 unit/well PARP-1, 25° C., 45 minutes; read-out: PARP1 enzyme IC50
T1 construct: purchased Trevigen
Protocol: PARP-1 activity was determined using a HT Universal chemiluminescent PARP Assay Kit (Trevigen, Gaithersburg, Md., USA). The assay was to measure the incorporation of biotinylated poly(ADP-ribose) onto histone proteins catalyzed by PARP-1 upon activation with DNA. Experimental procedures were followed according to the instruction provided with the assay kit. In brief, PARP-1 (0.5 unit/well) was incubated with activated DNA and NAD^+ in reaction buffer in the presence or absence of test articles in histone-coated strip wells at 25° C. for 45 minutes. After incubation, the strip wells were incubated with Strep-HRP at 25° C. for 60 minutes after washes with PBS containing 0.1% Triton X-100. The chemiluminescence was measured with a Victor X5 2030 Multilabel Reader (Perkin Elmer) immediately after the addition of PeroxyGlow™ to the strip wells. IC50 value was calculated using median-effect method (Chou, T. C. (2006). Pharmacol. Rev. 58(3): 621-681).

MDA-MB-436 cells = assay: Cell proliferation assay (MTS, 7 days); assay type: cell-based; settings: Homo sapiens
Protocol: Cell Proliferation Assay:
MDA-MB-436 cells were purchased from American Type Culture Collection (USA). Cells were maintained at 37° C. in a humidified atmosphere with 5% CO2. For proliferation test, MDA-MB-436 cells were seeded in 96-well plates at low density in RPMI-1640 medium supplemented with 10% FBS and incubated for 24 h at 37° C. in a humidified atmosphere with 5% CO2. Cells were further incubated in fresh medium in the presence or absence of the test articles at 37° C. for 7 days. The proliferation of cells was measured with a 3-(4,5-dimethylthiazol-2-yl)-5-(3-carboxymethoxyphenyl)-2-(4-sulfophenyl)-2H-tetrazolium (MTS) assay using a CellTiter 96® Aqueous Non-Radioactive Cell Proliferation kit (Promega). The absorbance at 490 nm (A490) was determined with a Victor X5 2030 Multilabel Reader (Perkin Elmer). IC50 value was calculated using median-effect method (Chou, T. C. (2006). Pharmacol. Rev. 58(3): 621-681).

[1] = Pharmacokinetic assay, intravenous and oral administration; assay type: in vivo, Sprague-Dawley rats; settings: after oral administrations in rats; for half-life: Sprague-Dawley, rat, plasma, read-out: t½
Protocol: The tested articles were given to Sprague-Dawley rats by intravenous and oral administration. Plasma samples were prepared from blood samples which were collected at various time points. The plasma concentrations of the tested articles were determined by specific LC-MS/MS analytical methods. Pharmacokinetic parameters were calculated with WinNonlin®.

[2] = 168 h, MDA-MB-436 cells, 7 days, MTS, read-out: MDA-MB-436 cells EC50

T1 sequence (P09874 whole entry): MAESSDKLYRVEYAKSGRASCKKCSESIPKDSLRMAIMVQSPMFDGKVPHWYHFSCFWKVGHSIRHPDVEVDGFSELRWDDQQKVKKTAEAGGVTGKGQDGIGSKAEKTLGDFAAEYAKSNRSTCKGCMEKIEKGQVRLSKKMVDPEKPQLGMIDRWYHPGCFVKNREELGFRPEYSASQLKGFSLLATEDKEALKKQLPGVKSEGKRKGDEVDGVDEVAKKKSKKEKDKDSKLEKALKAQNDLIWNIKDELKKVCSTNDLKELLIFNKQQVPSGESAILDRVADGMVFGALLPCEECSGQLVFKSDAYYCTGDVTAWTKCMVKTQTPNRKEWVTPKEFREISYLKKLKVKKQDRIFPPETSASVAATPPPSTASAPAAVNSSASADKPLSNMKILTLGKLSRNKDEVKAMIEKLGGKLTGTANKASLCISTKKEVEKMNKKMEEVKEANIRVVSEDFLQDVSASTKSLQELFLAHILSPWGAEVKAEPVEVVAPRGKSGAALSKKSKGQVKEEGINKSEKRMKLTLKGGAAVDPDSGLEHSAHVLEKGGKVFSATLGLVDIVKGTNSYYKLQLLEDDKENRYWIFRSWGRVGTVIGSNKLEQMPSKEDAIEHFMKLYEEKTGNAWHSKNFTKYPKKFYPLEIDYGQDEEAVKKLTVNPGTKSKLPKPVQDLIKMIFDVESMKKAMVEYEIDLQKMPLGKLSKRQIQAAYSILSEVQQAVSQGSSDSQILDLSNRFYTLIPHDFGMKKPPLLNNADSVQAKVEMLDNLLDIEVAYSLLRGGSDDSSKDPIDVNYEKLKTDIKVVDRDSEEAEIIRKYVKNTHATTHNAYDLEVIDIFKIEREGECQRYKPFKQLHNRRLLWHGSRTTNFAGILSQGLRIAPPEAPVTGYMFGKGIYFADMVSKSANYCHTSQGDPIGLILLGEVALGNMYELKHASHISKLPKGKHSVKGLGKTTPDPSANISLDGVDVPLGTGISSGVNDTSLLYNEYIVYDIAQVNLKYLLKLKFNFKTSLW

Compound | IC50 (PARP-1) | EC50 (MDA-MB-436 cells; [2]) | half-life [1] | bioavailability (in words) [1] | EC50 (MDA-MB-436 cells; MDA-MB-436, 168 h, read-out: MDA-MB-436 cells EC50 (μM))
O=C(O)C1CCN(C(=O)c2cc(Cn3c(=O)[nH]c(=O)c4ccccc43)ccc2F)CC1 [Example 20] | > 0.01 µM |  |  |  | 
O=C(NC1CC1)C1CCN(C(=O)c2cc(Cn3c(=O)[nH]c(=O)c4ccccc43)ccc2F)CC1 [Example 21] | > 0.01 µM | 1 to 100 µM |  |  | 
O=C(c1cc(Cn2c(=O)[nH]c(=O)c3ccccc32)ccc1F)N1CCN(c2ncccn2)CC1 [Example 28] | 0.0001 to 0.01 µM | 0.0001 to 0.01 µM |  |  | 
Cc1cnc(C(=O)N2CCN(C(=O)c3cc(Cn4c(=O)[nH]c(=O)c5ccccc54)ccc3F)CC2)cn1 [Example 33] | 0.0001 to 0.01 µM | > 0.01 µM |  |  | 
O=C(c1cc(Cn2c(=O)[nH]c(=O)c3ccccc32)ccc1F)N1CCN(C(=O)C2CCCO2)CC1 (stereo not shown) [Example 38] | 0.0001 to 0.01 µM | > 0.01 µM | > 2 h | bioavailable | 
O=C(c1ccno1)N1CCN(C(=O)c2cc(Cn3c(=O)[nH]c(=O)c4ccccc43)ccc2F)CC1 [Example 31] | 0.0001 to 0.01 µM | > 0.01 µM |  |  | 
Cc1cc(C(=O)N2CCN(C(=O)c3cc(Cn4c(=O)[nH]c(=O)c5ccccc54)ccc3F)CC2)no1 [Example 35] | 0.0001 to 0.01 µM | > 0.01 µM |  |  | 
O=C(c1cc(Cn2c(=O)[nH]c(=O)c3ccccc32)ccc1F)N1CC=C(c2ccc(F)cc2)CC1 [Example 29] | 0.0001 to 0.01 µM | 1 to 100 µM |  |  | 
O=C(c1cc(Cn2c(=O)[nH]c(=O)c3ccccc32)ccc1F)N1CCN(C(=O)C2CC2)CC1 [Example 1] | 0.0001 to 0.01 µM |  |  |  | > 0.01 µM
CC1(C(=O)N2CCN(C(=O)c3cc(Cn4c(=O)[nH]c(=O)c5ccccc54)ccc3F)CC2)CCCN1 (stereo in doubt) [Example 40, (R)-1-(4-fluoro-3-(4-(2-methylpyrrolidine-2-carbonyl)piperazine-1-carbonyl)benzyl)quinazoline-2,4(1H,3H)-dione] | 0.0001 to 0.01 µM | > 0.01 µM |  |  | 
O=C(c1cc(Cn2c(=O)[nH]c(=O)c3ccccc32)ccc1F)N1CCC(n2cc(Br)cn2)CC1 [Example 14] | 0.0001 to 0.01 µM | > 0.01 µM |  |  | 
O=C(c1cnccn1)N1CCN(C(=O)c2cc(Cn3c(=O)[nH]c(=O)c4ccccc43)ccc2F)CC1 [Example 32] | 0.0001 to 0.01 µM | > 0.01 µM |  |  | 
O=C(c1cc(Cn2c(=O)[nH]c(=O)c3ccccc32)ccc1F)N1CCC(n2cccn2)CC1 [Example 15] | 0.0001 to 0.01 µM | 1 to 100 µM |  |  | 
O=C(c1cccc(Cn2c(=O)[nH]c(=O)c3ccccc32)c1)N1CCN(C(=O)C2CC2)CC1 [Example 2] | 0.0001 to 0.01 µM | 1 to 100 µM |  |  | 
O=C(c1cc(Cn2c(=O)[nH]c(=O)c3ccccc32)ccc1Cl)N1CCN(C(=O)C2CC2)CC1 [Example 3] | 0.0001 to 0.01 µM | 1 to 100 µM |  |  | 
O=C(c1ccccn1)N1CCN(C(=O)c2cc(Cn3c(=O)[nH]c(=O)c4ccccc43)ccc2F)CC1 [Example 30] | 0.0001 to 0.01 µM | > 0.01 µM |  |  | 
CC1(C(=O)N2CCN(C(=O)c3cc(Cn4c(=O)[nH]c(=O)c5ccccc54)ccc3F)CC2)CCCO1 (stereo not shown) [Example 39] | 0.0001 to 0.01 µM | > 0.01 µM |  |  | 

Compound | IC50 (PARP-1) | EC50 (MDA-MB-436 cells; [2]) | half-life [1] | bioavailability (in words) [1] | EC50 (MDA-MB-436 cells; MDA-MB-436, 168 h, read-out: MDA-MB-436 cells EC50 (μM))
Cc1nc(C)c(C(=O)N2CCN(C(=O)c3cc(Cn4c(=O)[nH]c(=O)c5ccccc54)ccc3F)CC2)o1 [Example 37] | 0.0001 to 0.01 µM | > 0.01 µM |  |  | 
O=C(c1cc(Cn2c(=O)[nH]c(=O)c3ccccc32)ccc1F)N1CCC(N2CCCC2)CC1 [Example 17] | 0.0001 to 0.01 µM | > 0.01 µM |  |  | 
O=C(c1cc(Cn2c(=O)[nH]c(=O)c3ccccc32)ccc1F)N1Cc2cccnc2C1 [Example 25] | 0.0001 to 0.01 µM | > 0.01 µM | > 2 h | bioavailable | 
CCOC(=O)N1CCN(C(=O)c2cc(Cn3c(=O)[nH]c(=O)c4ccccc43)ccc2F)CC1 [Example 41] | 0.0001 to 0.01 µM | > 0.01 µM |  |  | 
O=C(c1cc(Cn2c(=O)[nH]c(=O)c3ccccc32)ccc1F)N1Cc2nccnc2C1 [Example 26] | 0.0001 to 0.01 µM | > 0.01 µM |  |  | 
Cc1cc(C(=O)N2CCN(C(=O)c3cc(Cn4c(=O)[nH]c(=O)c5ccccc54)ccc3F)CC2)on1 [Example 36] | 0.0001 to 0.01 µM | > 0.01 µM |  |  | 
O=C(c1cc(Cn2c(=O)[nH]c(=O)c3ccccc32)ccc1F)N1CCC(ON=C2CCc3ccccc32)CC1 [Example 22] | > 0.01 µM |  |  |  | 
COC(=O)C1CCN(C(=O)c2cc(Cn3c(=O)[nH]c(=O)c4ccccc43)ccc2F)CC1 [Example 18] | 0.0001 to 0.01 µM | 1 to 100 µM |  |  | 
O=C(c1cc(Cn2c(=O)[nH]c(=O)c3ccccc32)ccc1F)N1CCNCC1 [Example 30b, 1-(4-fluoro-3-(piperazine-1-carbonyl)benzyl)quinazoline-2,4(1H,3H)-dione hydrochloric acid] | 0.0001 to 0.01 µM |  |  |  | 
CCNC(=O)OC1CCN(C(=O)c2cc(Cn3c(=O)[nH]c(=O)c4ccccc43)ccc2F)CC1 [Example 19] | > 0.01 µM | 1 to 100 µM |  |  | 
O=C(c1cc(Cn2c(=O)[nH]c(=O)c3ccccc32)ccc1F)N1CCC(OC(F)F)CC1 [Example 11] | 0.0001 to 0.01 µM | 1 to 100 µM |  |  | 
O=C(c1cc(Cn2c(=O)[nH]c(=O)c3ccccc32)ccc1F)N1CCC(Oc2ccccn2)CC1 [Example 12] | 0.0001 to 0.01 µM | 0.0001 to 0.01 µM |  |  | 
O=C(c1cc(Cn2c(=O)[nH]c(=O)c3ccccc32)ccc1F)N1Cc2cccc(F)c2C1 [Example 24] | 0.0001 to 0.01 µM | > 0.01 µM |  |  | 
O=C(OC1CCCC1)N1CCN(C(=O)c2cc(Cn3c(=O)[nH]c(=O)c4ccccc43)ccc2F)CC1 [Example 42] | 0.0001 to 0.01 µM | > 0.01 µM |  |  | 
O=C(c1cc(Cn2c(=O)[nH]c(=O)c3ccccc32)ccc1F)N1CCCCC1 [Example 4] | > 0.01 µM | 1 to 100 µM |  |  | 
O=C(c1cnco1)N1CCN(C(=O)c2cc(Cn3c(=O)[nH]c(=O)c4ccccc43)ccc2F)CC1 [Example 34] | 0.0001 to 0.01 µM | > 0.01 µM |  |  | 
